# Experimental data reported in ChEMBL document CHEMBL5352465, “Small molecules containing chalcogen elements (S, Se, Te) as new warhead to fight neglected tropical diseases” (Eur J Med Chem, 2023).
# Experiments:
# [1] = test system: Trypanosoma cruzi; assay: Antitrypanosomal activity against Trypanosoma cruzi epimastigote Dm28c strain assessed as parasite growth inhibition incubated for 96 hrs by Neubauer chamber based light microscopic analysis; format: functional, organism-based
# [2] = test system: Trypanosoma cruzi; assay: Antitrypanosomal activity against Trypanosoma cruzi arequipa strain amastigotes assessed as parasite growth inhibition incubated for 48 hrs by resazurin staining based analysis; format: functional, organism-based
# [3] = test system: Trypanosoma cruzi; assay: Antitrypanosomal activity against Trypanosoma cruzi arequipa strain trypomastigotes assessed as parasite growth inhibition incubated for 48 hrs by resazurin staining based analysis; format: functional, organism-based
# [4] = test system: Leishmania infantum; assay: Antileishmanial activity against Leishmania infantum amastigotes assessed as inhibition of parasite growth; format: functional, organism-based
# [5] = test system: Trypanosoma cruzi; assay: Antitrypanosomal activity against Trypanosoma cruzi epimastigote assessed as parasite growth inhibition; format: functional, organism-based
# [6] = test system: Leishmania infantum; assay: Antileishmanial activity against Leishmania infantum promastigotes assessed as reduction in cell viability; format: functional, organism-based
# [7] = test system: Trypanosoma cruzi; assay: Antitrypanosomal activity against Trypanosoma cruzi arequipa strain epimastigotes assessed as parasite growth inhibition incubated for 48 hrs by resazurin staining based analysis; format: functional, organism-based
# [8] = test system: Leishmania infantum; assay: Antileishmanial activity against Leishmania infantum promastigotes assessed as inhibition of parasite growth; format: functional, organism-based
# [9] = Selectivity index, ratio of CC50 for human WI26VA4 cells to ratio of IC50 for antileishmanial activity against Leishmania infantum MHOM/BR/74/PP75 promastigote; format: toxicity; conditions: read-out: Ratio CC50/IC50
# [10] = Selectivity index, ratio of CC50 for human WI26VA4 cells to ratio of IC50 for antileishmanial activity against Leishmania braziliensis MHOM/BR/75/M2903 promastigote; format: toxicity; conditions: read-out: Ratio CC50/IC50
# [11] = test system: Leishmania braziliensis; assay: Antileishmanial activity against Leishmania braziliensis MHOM/BR/75/M2903 strain promastigotes assessed as reduction in cell viability incubated for 48 hrs by MTT assay; format: functional, organism-based; conditions: MHOM/BR/75/M2903, 48 h
# [12] = test system: Leishmania infantum; assay: Antileishmanial activity against Leishmania infantum MHOM/BR/74/PP75 strain promastigotes assessed as reduction in cell viability incubated for 48 hrs by MTT assay; format: functional, organism-based; conditions: MHOM/BR/74/PP75, 48 h
# [13] = Selectivity index, ratio of CC50 for mouse J774.A1 cells to ratio of IC50 for antitrypanosomal activity against bloodstream Trypanosoma cruzi NINOA strain trypomastigotes; format: toxicity; conditions: read-out: Ratio CC50/IC50
# [14] = Selectivity index, ratio of CC50 for mouse J774.A1 cells to ratio of IC50 for antitrypanosomal activity against bloodstream Trypanosoma cruzi INC-5 strain trypomastigotes; format: toxicity; conditions: read-out: Ratio CC50/IC50
# [15] = test system: Trypanosoma cruzi; assay: Antitrypanosomal activity against bloodstream Trypanosoma cruzi INC-5 strain trypomastigotes assessed as parasite growth inhibition incubated for 24 hrs by microscopic analysis; format: functional
# [16] = test system: Trypanosoma cruzi; assay: Antitrypanosomal activity against bloodstream Trypanosoma cruzi NINOA strain trypomastigotes assessed as parasite growth inhibition incubated for 24 hrs by microscopic analysis; format: functional
# [17] = test system: Leishmania amazonensis; assay: Antileishmanial activity against Leishmania amazonensis promastigotes assessed as inhibition of parasite growth; format: functional, organism-based
# [18] = test system: Leishmania major; assay: Antileishmanial activity against Leishmania major promastigote assessed as inhibition of parasite growth; format: functional, organism-based
# [19] = test system: Trypanosoma cruzi; assay: Antitrypanosomal activity against Trypanosoma cruzi epimastigote Dm28c strain assessed as parasite growth inhibition; format: functional, organism-based
# [20] = test system: Trypanosoma cruzi; assay: Antitrypanosomal activity against Trypanosoma cruzi amastigote assessed as parasite growth inhibition; format: functional, organism-based
# [21] = Selectivity index, ratio of CC50 for cytotoxicity against mouse RAW264.7 cells to IC50 for antitrypanosomal activity against Trypanosoma cruzi amastigote; format: toxicity, cell-based; conditions: read-out: Ratio CC50/IC50
# [22] = Selectivity index, ratio of CC50 for cytotoxicity against mouse RAW264.7 cells to IC50 for antitrypanosomal activity against Trypanosoma cruzi epimastigote; format: toxicity, cell-based; conditions: read-out: Ratio CC50/IC50
# [23] = molecular target: Cruzipain (Trypanosoma cruzi) (UniProt P25779); assay: Inhibition of Trypanosoma cruzi recombinant Cruzaine using Z-FR-AMC as substrate preincubated for 10 mins followed by substrate addition by fluorimeter analysis
# Sequence of Cruzipain (Trypanosoma cruzi) (P25779 123-467 limits assumed): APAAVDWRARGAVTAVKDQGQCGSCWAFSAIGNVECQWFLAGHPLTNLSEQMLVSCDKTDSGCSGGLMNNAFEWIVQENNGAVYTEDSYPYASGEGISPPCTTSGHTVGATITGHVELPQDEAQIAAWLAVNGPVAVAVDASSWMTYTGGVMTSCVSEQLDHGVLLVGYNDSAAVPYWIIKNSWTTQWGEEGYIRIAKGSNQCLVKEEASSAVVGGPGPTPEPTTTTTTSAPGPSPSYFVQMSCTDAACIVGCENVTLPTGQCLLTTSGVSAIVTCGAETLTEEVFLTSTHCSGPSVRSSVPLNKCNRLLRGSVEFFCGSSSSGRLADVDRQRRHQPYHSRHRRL
# [24] = test system: Trypanosoma cruzi; assay: Antitrypanosomal activity against bloodstream Trypanosoma cruzi Y strain trypomastigotes assessed as parasite growth inhibition incubated for 24 hrs by light microscopic analysis; format: functional, organism-based
compound,measurement,setting,value
C/C(=N\NC(N)=S)c1ccc(Cl)cc1Cl,IC50,[1],24.8 µM
O=C(Nc1ccc([Se][Se]c2ccc(NC(=O)c3ccco3)cc2)cc1)c1ccco1,IC50,[2],3.2 µM
same,IC50,[3],1.8 µM
CCOP(=S)(Nc1ccc([Se][Se]c2ccc(NP(=S)(OCC)OCC)cc2)cc1)OCC,IC50,[4],0.79 µM
NC(=S)N/C=N/c1c(C(F)(F)F)nn(-c2ccccc2)c1-c1ccc([N+](=O)[O-])cc1,IC50,[5],45.7 µM
C/C(=N\Nc1nc(-c2ccc(F)cc2)cs1)c1ccccn1,IC50,[6],0.42 µM
Cc1ccc(C[Se]C#N)cc1,IC50,[2],3.1 µM
same,IC50,[7],3 µM
same,IC50,[3],4.5 µM
O=C(CSc1nc(-c2ccccc2)cc2cc(-c3ccccc3)nn12)N/N=C/c1ccccc1,IC50,[4],5.85 µM
same,IC50,[8],4.92 µM
N#Cc1ccc(C[Se][Se]Cc2ccc(C#N)cc2)cc1,IC50,[2],0.5 µM
same,IC50,[7],1.3 µM
same,IC50,[3],0.9 µM
Cc1ccc([Te]Cc2ncc(-c3ccc(S(N)(=O)=O)cc3)[se]2)cc1,IC50,[4],0.34 µM
O=C1NC(=O)/C(=C/c2cc(Cl)cc(Cl)c2Cl)S1,selectivity ratio,[9],0.96
same,selectivity ratio,[10],0.63
same,IC50,[11],46.4 µM
same,IC50,[12],30.4 µM
c1ccc(CSc2nc3ccccc3s2)cc1,selectivity ratio,[13],> 7.29
same,selectivity ratio,[14],> 2.68
same,LC50,[15],336 µM
same,LC50,[16],123 µM
COc1ccc([Te]Cc2ccc(S(N)(=O)=O)cc2)cc1,IC50,[4],6.14 µM
N#C[Se]Cc1ccccc1[N+](=O)[O-],IC50,[2],0.5 µM
same,IC50,[7],0.9 µM
same,IC50,[3],1.3 µM
[Se]=C=NCCCCc1ccccc1 [PHENYLBUTYL ISOSELENOCYANATE],IC50,[17],4.5 µM
same,IC50,[18],7.2 µM
O=C1NC(=O)/C(=C/c2cc(Cl)cc(Br)c2O)S1,selectivity ratio,[9],0.74
same,selectivity ratio,[10],0.55
same,IC50,[11],48.2 µM
same,IC50,[12],35.9 µM
Oc1cccc(-c2nnc(-c3ccc4ncccc4c3)s2)c1O,IC50,[18],0.04 µM
COP(=O)(Nc1ccc([Se][Se]c2ccc(NP(=O)(OC)OC)cc2)cc1)OC,IC50,[4],0.33 µM
NC(=S)N/C=N/c1c(C(F)(F)F)nn(-c2ccccc2)c1-c1ccc(F)cc1,IC50,[5],69.3 µM
Cc1sc(N/N=C/c2ccccn2)nc1-c1ccc(Cl)c(Cl)c1,IC50,[6],5.52 µM
O=S(=O)(Nc1ccc([Se][Se]c2ccc(NS(=O)(=O)c3ccc(C(F)(F)F)cc3)cc2)cc1)c1ccc(C(F)(F)F)cc1,IC50,[2],2.3 µM
same,IC50,[7],2.7 µM
same,IC50,[3],2 µM
NS(=O)(=O)c1nnc(NC(=O)Cc2ccccc2Br)s1,IC50,[19],3.98 µM
same,IC50,[20],2.15 µM
same,selectivity ratio,[21],5
same,selectivity ratio,[22],2
C/C(=N\NC(N)=S)c1ccc(Cl)c(Cl)c1Cl,IC50,[1],29 µM
Brc1ccc(-c2csc(N/N=C/c3ccccn3)n2)cc1,IC50,[6],3.12 µM
O=C(Nc1ccc([Se][Se]c2ccc(NC(=O)c3ccc([N+](=O)[O-])cc3)cc2)cc1)c1ccc([N+](=O)[O-])cc1,IC50,[2],49.3 µM
same,IC50,[3],35.8 µM
O=C1NC(=O)/C(=C/c2ccccc2Cl)S1,selectivity ratio,[9],0.89
same,selectivity ratio,[10],0.86
same,IC50,[11],71 µM
same,IC50,[12],68.8 µM
CN(C)c1ccc(/C=N/NC(N)=S)cc1,inhibition,[23],70%
Cc1ccc(S(=O)(=O)Nc2ccc([Se][Se]c3ccc(NS(=O)(=O)c4ccc(C)cc4)cc3)cc2)cc1,IC50,[2],4.2 µM
same,IC50,[7],5.1 µM
same,IC50,[3],3.7 µM
O=P(Nc1ccc([Se][Se]c2ccc(NP(=O)(Oc3ccccc3)Oc3ccccc3)cc2)cc1)(Oc1ccccc1)Oc1ccccc1,IC50,[4],14.3 µM
CSc1ccc(C[Se][Se]Cc2ccc(SC)cc2)cc1,IC50,[2],1.2 µM
same,IC50,[7],1.8 µM
same,IC50,[3],1.7 µM
O=C1C(=O)c2ccccc2C2=C1CC(C[Se]c1ccc(Cl)cc1)O2 (stereo not given),IC50,[24],58.3 µM
O=C1c2ccccc2C(=O)c2cc(C[Se][Se]Cc3ccc4c(c3)C(=O)c3ccccc3C4=O)ccc21,IC50,[4],0.68 µM
NS(=O)(=O)c1ccc(NC(=[Se])NC(=O)c2ccccc2)cc1,IC50,[4],5.23 µM
C/C(=N\Nc1nc(-c2ccc(Cl)c(Cl)c2)c(C)s1)c1ccccn1,IC50,[6],2.73 µM
Oc1ccc(-c2nnc(-c3ccc4ncccc4c3)s2)c(O)c1,IC50,[18],0.7 µM
